Test results reported in ChEMBL document CHEMBL1201862, “PubChem BioAssay data set” (2004).
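Briefly, cells in 96-well plates were exposed to five compound concentrations for 48 h, and endpoints were estimated by linear interpolation. At the GI50, growth is halved.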 The source made the active and inactive calls. Cut-off read from the data, not from the text of the source: active = GI50 up to about 1.1 µM and inactive = higher.

Assays:
Experiment in all cases: inhibition of tumour cell growth, NCI panel, 48 h
OVCAR-3 = tested on: OVCAR-3
ACHN = tested on: ACHN
U-251 = tested on: U-251
DU-145 = tested on: DU-145
HCT-15 = tested on: HCT-15
OVCAR-4 = tested on: OVCAR-4
NCI/ADR-RES = tested on: NCI/ADR-RES
UO-31 = tested on: UO-31
OVCAR-5 = tested on: OVCAR-5
SF-539 = tested on: SF-539
HL-60 = tested on: HL-60
NCI-H522 = tested on: NCI-H522
M14 = tested on: M14
SK-MEL-5 = tested on: SK-MEL-5
LOX IMVI = tested on: LOX IMVI
SNB-75 = tested on: SNB-75
UACC-257 = tested on: UACC-257
KM12 = tested on: KM12

Row | Structure (SMILES) | GI50 (OVCAR-3) | GI50 (ACHN) | GI50 (U-251) | GI50 (DU-145) | GI50 (HCT-15) | GI50 (OVCAR-4) | GI50 (NCI/ADR-RES) | GI50 (UO-31) | GI50 (OVCAR-5) | GI50 (SF-539) | GI50 (HL-60) | GI50 (NCI-H522) | GI50 (M14) | GI50 (SK-MEL-5) | GI50 (LOX IMVI) | GI50 (SNB-75) | GI50 (UACC-257) | GI50 (KM12)
1 | CSCCC(NCc1c(O)ccc2ccc(=O)oc12)C(=O)O (stereo not drawn) | > 100 µM (inactive) | > 100 µM (inactive) | > 100 µM (inactive) | > 100 µM (inactive) | > 100 µM | > 100 µM (inactive) | > 100 µM (inactive) | > 100 µM (inactive) | > 100 µM (inactive) | > 100 µM (inactive) | > 100 µM (inactive) | > 100 µM (inactive) | > 100 µM (inactive) | 61.5 µM (inactive) | > 100 µM (inactive) | 16.9 µM (inactive) | > 100 µM (inactive) | > 100 µM (inactive)
2 | c1cc2cc3c4c5c(cc6ccc7cc8cc9c%10c8c8c7c6c5c8c5c%10c(c1C9N1CCOCCOCCOCCOCCOCC1)c2c45)C3 (stereo not drawn) | > 100 µM (inactive) | > 100 µM (inactive) | > 100 µM (inactive) | > 100 µM (inactive) | > 100 µM | > 100 µM (inactive) | > 100 µM (inactive) | > 100 µM (inactive) | > 100 µM (inactive) | > 100 µM (inactive) | > 100 µM (inactive) | > 100 µM (inactive) | > 100 µM (inactive) | 78.9 µM (inactive) | > 100 µM (inactive) | > 100 µM (inactive) | > 100 µM (inactive) | > 100 µM (inactive)
3 | OC(COc1cccc2ccccc12)CN1CCOCC1 (stereo not drawn) | > 100 µM (inactive) | > 100 µM (inactive) | > 100 µM (inactive) | > 100 µM (inactive) | > 100 µM | > 100 µM (inactive) | > 100 µM (inactive) | > 100 µM (inactive) | > 100 µM (inactive) | > 100 µM (inactive) | > 100 µM (inactive) | 54 µM (inactive) | > 100 µM (inactive) | > 100 µM (inactive) | > 100 µM (inactive) | > 100 µM (inactive) | > 100 µM (inactive) | > 100 µM (inactive)
4 | CC(C)(C)OC(=O)NC(Cc1ccccc1)C(=O)OCN1C(=O)C2C3C=CC(C2C1=O)C1C2C(=O)N(COC(=O)C(Cc4ccccc4)NC(=O)OC(C)(C)C)C(=O)C2C31 (stereo not drawn) | 63.1 µM (inactive) | 40.6 µM (inactive) | 41.2 µM (inactive) | 41.6 µM (inactive) | 43.2 µM | 37.1 µM (inactive) | 43 µM (inactive) | 19.5 µM (inactive) | 53.3 µM (inactive) | 42.4 µM (inactive) | 30.7 µM (inactive) | 23.7 µM (inactive) | 38.9 µM (inactive) | 28 µM (inactive) | 36.9 µM (inactive) | 19 µM (inactive) | > 56.4 µM (inactive) | > 100 µM (inactive)
5 | CC(=O)Oc1cccc2c1C(=O)CCCC2 | > 100 µM (inactive) | > 100 µM (inactive) | > 100 µM (inactive) | > 100 µM (inactive) | > 100 µM | > 100 µM (inactive) | > 100 µM (inactive) | > 100 µM (inactive) | > 100 µM (inactive) | > 100 µM (inactive) | > 100 µM (inactive) | > 100 µM (inactive) | > 100 µM (inactive) | > 100 µM (inactive) | > 100 µM (inactive) | 0.0692 µM (active) | > 100 µM (inactive) | > 100 µM (inactive)
6 | NCCCN(CCCN(C(=O)Nc1ccccc1)c1ccccc1)C(=O)Nc1ccccc1 |  | 55.7 µM (inactive) | 36.6 µM (inactive) | 36.8 µM (inactive) | 28.9 µM |  | 69.5 µM (inactive) | 20.8 µM (inactive) | 43.2 µM (inactive) |  | 28.1 µM (inactive) | 20.2 µM (inactive) | 19.4 µM (inactive) | 18.5 µM (inactive) | 23.5 µM (inactive) | 23.2 µM (inactive) | 22 µM (inactive) | 
7 | CN(C)CCNC1=Nc2ccccc2C(=O)N2CSCC12 (stereo not drawn) | > 100 µM (inactive) | > 100 µM (inactive) | > 100 µM (inactive) | > 100 µM (inactive) | > 100 µM | > 100 µM (inactive) | > 100 µM (inactive) | > 100 µM (inactive) | > 100 µM (inactive) |  |  | > 100 µM (inactive) | > 100 µM (inactive) | > 100 µM (inactive) | > 100 µM (inactive) | > 100 µM (inactive) | > 100 µM (inactive) | > 100 µM (inactive)
8 | Oc1ccc(Cl)cc1C1=NC(/N=C\c2ccccc2)=NC(c2ccccc2)C1 (stereo not drawn) | 11.4 µM (inactive) |  | 30.1 µM (inactive) | > 100 µM (inactive) |  |  | 21.4 µM (inactive) | 10.5 µM (inactive) | > 100 µM (inactive) | 22.8 µM (inactive) |  | 12.1 µM (inactive) | > 100 µM (inactive) | 14.1 µM (inactive) |  | 17.5 µM (inactive) | > 100 µM (inactive) | 10.5 µM (inactive)
9 | Cc1cc(-c2nc3c(F)cccc3s2)ccc1N | > 100 µM (inactive) | 30 µM (inactive) | 69.2 µM (inactive) | 52.4 µM (inactive) | 84.9 µM |  | > 100 µM (inactive) | 12.4 µM (inactive) |  |  | 43.8 µM (inactive) | 11.3 µM (inactive) | 97.5 µM (inactive) | 62.2 µM (inactive) | 61.4 µM (inactive) | 52.1 µM (inactive) | 82.6 µM (inactive) | 38.9 µM (inactive)
10 | O=C(NC(=S)Nc1ccc(Br)cc1)c1ccc2c(c1)Sc1ccccc1O2 | > 100 µM (inactive) | 60.1 µM (inactive) | 37 µM (inactive) | > 100 µM (inactive) | > 100 µM |  | > 100 µM (inactive) | 31.1 µM (inactive) | > 100 µM (inactive) | > 100 µM (inactive) | > 100 µM (inactive) | > 100 µM (inactive) | > 100 µM (inactive) | > 100 µM (inactive) | > 100 µM (inactive) | 3.04 µM (inactive) | > 100 µM (inactive) | > 100 µM (inactive)
11 | CN(C)c1ccc(/C=C/C(=O)CC(=O)/C=C/c2ccc(N(C)C)cc2)cc1 | 65.3 µM (inactive) | > 100 µM (inactive) | > 100 µM (inactive) | > 100 µM (inactive) | > 100 µM | > 100 µM (inactive) | > 100 µM (inactive) | > 100 µM (inactive) | > 100 µM (inactive) | > 100 µM (inactive) | > 100 µM (inactive) | > 100 µM (inactive) | > 100 µM (inactive) | > 100 µM (inactive) | 15.7 µM (inactive) | > 100 µM (inactive) |  | > 100 µM (inactive)
12 | O=C(O)CCc1nc(-c2ccccc2)c(-c2ccccc2)o1 [OXAPROZIN] | > 100 µM (inactive) | > 100 µM (inactive) | > 100 µM (inactive) | > 100 µM (inactive) | > 100 µM | > 100 µM (inactive) | > 100 µM (inactive) |  | > 100 µM (inactive) | > 100 µM (inactive) | > 100 µM (inactive) | > 100 µM (inactive) | > 100 µM (inactive) | > 100 µM (inactive) | > 100 µM (inactive) | > 100 µM (inactive) | > 100 µM (inactive) | > 100 µM (inactive)
13 | CCc1nnc2sc(-c3ccc(-c4ccc(Cl)cc4Cl)o3)nn12 | 40.6 µM (inactive) | 82 µM (inactive) | 37.3 µM (inactive) | 72.3 µM (inactive) | 61.7 µM | 84.7 µM (inactive) | 50.2 µM (inactive) | 67.8 µM (inactive) | > 100 µM (inactive) |  | 27 µM (inactive) | 52.4 µM (inactive) | > 100 µM (inactive) | 34.2 µM (inactive) | 74.1 µM (inactive) | 21.3 µM (inactive) | 43.9 µM (inactive) | > 100 µM (inactive)
14 | CCNC(=O)c1cc(Cl)ccc1NC(=O)C12CC3CC(CC(C3)C1)C2 | 36.1 µM (inactive) | 44.1 µM (inactive) | 34.5 µM (inactive) | 28.4 µM (inactive) | 32.7 µM | 36.1 µM (inactive) | 47.8 µM (inactive) | 22.3 µM (inactive) | 42.3 µM (inactive) | > 100 µM (inactive) | 25.5 µM (inactive) | 75.5 µM (inactive) | 31.8 µM (inactive) | 30.1 µM (inactive) | 42 µM (inactive) |  | 30.4 µM (inactive) | 27.2 µM (inactive)
15 | CC1=NN(C(=O)CSc2nc3ccc(I)cc3c(=O)n2Cc2ccccc2)C(=O)C1 | 27.9 µM (inactive) | 28.8 µM (inactive) | 25.4 µM (inactive) | 37.1 µM (inactive) | 21.5 µM | 24.2 µM (inactive) | 20.9 µM (inactive) |  | 65.2 µM (inactive) | 35.8 µM (inactive) | 33.3 µM (inactive) | 7.05 µM (inactive) | 31.7 µM (inactive) | 21.7 µM (inactive) | 16.4 µM (inactive) | 35.3 µM (inactive) | 34 µM (inactive) | 28.3 µM (inactive)
16 | COc1ccc(S(=O)(=O)c2nnc(S(=O)(=O)Cc3ccccc3)s2)cc1 | 32.2 µM (inactive) | 12.7 µM (inactive) | 19.5 µM (inactive) | 17 µM (inactive) | 25.7 µM | 44.5 µM (inactive) | 43.7 µM (inactive) | 21.6 µM (inactive) | 25.8 µM (inactive) | 12 µM (inactive) |  | 8.18 µM (inactive) | 17.5 µM (inactive) | 19.5 µM (inactive) |  | 16.4 µM (inactive) | 14.7 µM (inactive) | 29.6 µM (inactive)
17 | CCCCCC(C(O)C#N)C(O)(C(F)(F)F)C(F)(F)F (stereo not drawn) | > 10 µM (inactive) | > 10 µM (inactive) | > 10 µM (inactive) | > 10 µM (inactive) | > 10 µM | > 10 µM (inactive) | > 10 µM (inactive) |  | > 10 µM (inactive) | > 10 µM (inactive) | > 10 µM (inactive) | > 10 µM (inactive) | > 10 µM (inactive) | > 10 µM (inactive) | > 10 µM (inactive) | > 10 µM (inactive) | > 10 µM (inactive) | > 10 µM (inactive)
